Laboratory results from patent publication US11684067B2, “Generation of peroxyformic acid through polyhydric alcohol formate” (priority 2014, dated 2023).
“And” between values parts separate entries of the source, which are not always exact repeats. Equal values may be shown once.

Experiments:
[1] = Physical properties (hygroscopicity, water solubility) of formate esters prepared; assay type: physicochemical; conditions: hexaformates: at room temperature
pseudomonas = test: Suspension test in cooling tower water samples; assay type: cell-based; conditions: 10 minutes
Description: The antimicrobial efficacy of peroxyformic acid generated through the perhydrolysis of glycerol formatted were tested against pseudomonas in cooling tower samples at both 25° C. and 37° C., along with the peroxyacetic acid (POAA) controls, and the results are summarized in Table 6 and 7 below.

[2] = tested on: Nalidixic acid resistant E. coli O157:H7; test: Reduction of E. coli on raw beef brisket, dip treatment; assay type: cell-based; conditions: 10 minutes dip, ambient, 220 ppm POAA / 180 ppm PFA / 50 ppm LAS per formula (Table 15)
Description: Nalidixic acid resistant E. coli O157:H7 was used to evaluate the efficacy in treatment with performic acid composition on raw beef brisket according to the conditions shown in Table 14.
The generation of PFA from the perhydrolysis of glycerol formates, PFA formulations, POAA formations and controls were evaluated as shown in Table 15.

[3] = tested on: Bacillus subitilisATCC 19659; test: Sporicidal activity of ester PFA versus POAA (Example 21); assay type: cell-based, Bacillus subtilis; conditions: 20°C, dirty
Excerpt: Bacillus pathogens were used to evaluate the micro efficacy of ester PFA generated according to methods of the present invention in comparison to POAA.

[4] = tested on: Aspergillus brasiliensis ATCC 16404; test: Fungicidal/yeasticidal activity of ester PFA versus POAA (Example 22); assay type: cell-based; conditions: 20°C, dirty
Excerpt: (§1) Canidia and Aspergillus pathogens were used to evaluate the micro efficacy of ester PFA generated according to methods of the present invention in comparison to POAA.

[5] = tested on: Candida albicans ATCC 10231; test: as above; assay type: cell-based; conditions: 20°C, dirty
Excerpt: as §1

[6] = tested on: Bacillus subitilisATCC 19659; test: Sporicidal activity of ester PFA versus POAA (Example 23); assay type: cell-based, Bacillus subtilis; conditions: 20°C, dirty
Excerpt: Additional Bacillus pathogens were used to evaluate the micro efficacy of ester PFA generated according to methods of the present invention in comparison to POAA.

[7] = tested on: Enterococcus hirae ATCC 10541; test: Bactericidal activity of ester PFA versus POAA, EN 1276, dirty conditions; assay type: cell-based; conditions: 20°C
Excerpt: (§2) Additional Staphylococcus, Enterococcus and Pseudomonas pathogens were used to evaluate the micro efficacy of ester PFA generated according to methods of the present invention in comparison to POAA.

[8] = tested on: Pseudomonas aeruginosa ATCC 15442; test: as above; assay type: cell-based; conditions: 20°C
Excerpt: as §2

[9] = tested on: Staphylococcus aureus ATCC 6538; test: as above; assay type: cell-based; conditions: 20°C
Excerpt: as §2

[10] = Laundry disinfection efficacy, EPA protocol on 100% cotton carriers (Table 38); assay type: cell-based; conditions: 42 ppm, pH 7.7, 500 ppm hard water, 40° C., 5 minute exposure, vs water control
Description: The microbial efficacy of peroxyformic acid was also tested following the EPA protocol on 100% cotton carriers against a water control. The test conditions were pH 7.7, 500 ppm hard water, 40° C. and 5 minute exposure time. In comparison, the performance of peracetic acid was also tested under the same conditions.

[11] = BP Cooling Water pH 8.74, 5 ppm Ester PFA / 6.13 ppm POAA, 25°C
[12] = BP Cooling Water pH 8.74, 5 ppm Ester PFA / 6.13 ppm POAA, 37°C
[13] = BP Cooling Water pH 8.74, 12.3 ppm POAA, 25°C
[14] = BP Cooling Water pH 8.74, 12.3 ppm POAA, 37°C
[15] = Peninsula Cooling Water pH 8.81, 5 ppm Ester PFA / 6.13 ppm POAA, 25°C
[16] = Peninsula Cooling Water pH 8.81, 5 ppm Ester PFA / 6.13 ppm POAA, 37°C
[17] = Peninsula Cooling Water pH 8.81, 12.3 ppm POAA, 25°C
[18] = Peninsula Cooling Water pH 8.81, 12.3 ppm POAA, 37°C
[19] = 300 ppm PFA pH 6.84 / 368 ppm POAA pH 6.73 (molar equivalent), 5 minutes
[20] = 300 ppm PFA pH 6.84 / 368 ppm POAA pH 6.73 (molar equivalent), 10 minutes
[21] = 400 ppm PFA pH 7.19 / 490 ppm POAA pH 6.78 (molar equivalent), 5 minutes
[22] = 400 ppm PFA pH 7.19 / 490 ppm POAA pH 6.78 (molar equivalent), 10 minutes
[23] = 200 ppm PFA pH 6.15 / 245 ppm POAA pH 6.56, 5 minutes
[24] = 200 ppm PFA pH 6.15 / 245 ppm POAA pH 6.56, 10 minutes
[25] = 200 ppm PFA pH 6.15 / 245 ppm POAA pH 6.56, 15 minutes
[26] = 300 ppm PFA pH 6.21 / 368 ppm POAA pH 6.63, 5 minutes
[27] = 300 ppm PFA pH 6.21 / 368 ppm POAA pH 6.63, 10 minutes
[28] = 300 ppm PFA pH 6.73 / 368 ppm POAA pH 6.88, 5 minutes
[29] = 300 ppm PFA pH 6.73 / 368 ppm POAA pH 6.88, 10 minutes
[30] = 400 ppm PFA pH 6.95 / 490 ppm POAA pH 6.65, 5 minutes
[31] = 400 ppm PFA pH 6.95 / 490 ppm POAA pH 6.65, 10 minutes
[32] = 20 ppm PFA pH 6.61 / 24.8 ppm POAA pH 6.73, 5 minutes
[33] = 30 ppm PFA pH 6.74 / 37.6 ppm POAA pH 6.90, 5 minutes
[34] = 50 ppm PFA pH 6.60 / 62.4 ppm POAA pH 6.98, 5 minutes

Structure (SMILES): O=COC[C@@H](OC=O)[C@@H](OC=O)[C@H](OC=O)[C@@H](COC=O)OC=O [Mannitol Hexaformates]
- solubility in water of the isolated solid [1]: marginally soluble in water

Structure (SMILES): CC(=O)OO [POAA, peroxyacetic acid, reference compound]
- Avg. Log10 Growth (pseudomonas; [11]): 4.10 Log10
- Log10 Reduction (pseudomonas; [11]): 1.57 Log10
- Avg. Log10 Growth (pseudomonas; [12]): 2.84 Log10
- Log10 Reduction (pseudomonas; [12]): 2.26 Log10
- Avg. Log10 Growth (pseudomonas; [13]): 3.26 Log10
- Log10 Reduction (pseudomonas; [13]): 2.41 Log10
- Avg. Log10 Growth (pseudomonas; [14]): 2.73 Log10
- Log10 Reduction (pseudomonas; [14]): 2.37 Log10
- Avg. Log10 Growth (pseudomonas; [15]): 3.81 Log10
- Log10 Reduction (pseudomonas; [15]): 1.37 Log10
- Avg. Log10 Growth (pseudomonas; [16]): 2.76 Log10
- Log10 Reduction (pseudomonas; [16]): 2.34 Log10
- Avg. Log10 Growth (pseudomonas; [17]): 3.30 Log10
- Log10 Reduction (pseudomonas; [17]): 1.88 Log10
- Avg. Log10 Growth (pseudomonas; [18]): 3.20 Log10
- Log10 Reduction (pseudomonas; [18]): 1.90 Log10
- Average Log CFU/cm2 [2]: 2.98 Log CFU/cm2
- Log reduction [2]: 1.06 Log
- CFU/cm2 ([2]; single samples): 1.20E+03 CFU/cm2 and 9.00E+02 CFU/cm2 and 8.00E+02 CFU/cm2
- CFU/ml ([2]; single samples): 6.00E+02 CFU/ml and 4.50E+02 CFU/ml and 4.00E+02 CFU/ml
- Log CFU/cm2 ([2]; single samples): 3.08 Log CFU/cm2 and 2.95 Log CFU/cm2 and 2.90 Log CFU/cm2
- Average CFU/mL [3, 19]: 7.50E+05 CFU/mL
- Log10 Growth [3, 19]: 5.88 Log10
- Log10 Reduction [3, 19]: 0.00 Log10
- Average CFU/mL [3, 20]: 5.00E+05 CFU/mL
- Log10 Growth [3, 20]: 5.70 Log10
- Log10 Reduction [3, 20]: 0.00 Log10
- Average CFU/mL [3, 21]: 8.50E+05 CFU/mL
- Log10 Growth [3, 21]: 5.93 Log10
- Log10 Reduction [3, 21]: 0.00 Log10
- Average CFU/mL [3, 22]: 4.00E+05 CFU/mL
- Log10 Growth [3, 22]: 5.60 Log10
- Log10 Reduction [3, 22]: 0.19 Log10
- Average CFU/mL [4, 23]: >1.65E+05 CFU/mL
- Log10 Growth [4, 23]: >5.22 Log10
- Log10 Reduction [4, 23]: <0.53 Log10
- Average CFU/mL [4, 24]: >1.65E+05 CFU/mL
- Log10 Growth [4, 24]: >5.22 Log10
- Log10 Reduction [4, 24]: <0.53 Log10
- Average CFU/mL [4, 25]: >1.65E+05 CFU/mL
- Log10 Growth [4, 25]: >5.22 Log10
- Log10 Reduction [4, 25]: <0.53 Log10
- Average CFU/mL [4, 26]: >1.65E+05 CFU/mL
- Log10 Growth [4, 26]: >5.22 Log10
- Log10 Reduction [4, 26]: <0.53 Log10
- Average CFU/mL [4, 27]: >1.65E+05 CFU/mL
- Log10 Growth [4, 27]: >5.22 Log10
- Log10 Reduction [4, 27]: <0.53 Log10
- Average CFU/mL [5, 23]: <140 CFU/mL
- Log10 Growth [5, 23]: <2.15 Log10
- Log10 Reduction [5, 23]: >4.14 Log10
- Average CFU/mL [5, 24]: <140 CFU/mL
- Log10 Growth [5, 24]: <2.15 Log10
- Log10 Reduction [5, 24]: >4.14 Log10
- Average CFU/mL [5, 25]: <140 CFU/mL
- Log10 Growth [5, 25]: <2.15 Log10
- Log10 Reduction [5, 25]: >4.14 Log10
- Average CFU/mL [5, 26]: <140 CFU/mL
- Log10 Growth [5, 26]: <2.15 Log10
- Log10 Reduction [5, 26]: >4.14 Log10
- Average CFU/mL [5, 27]: <140 CFU/mL
- Log10 Growth [5, 27]: <2.15 Log10
- Log10 Reduction [5, 27]: >4.14 Log10
- Average CFU/mL [6, 28]: >3.0E+06 CFU/mL
- Log10 Growth [6, 28]: >6.48 Log10
- Log10 Reduction [6, 28]: <1.26 Log10
- Average CFU/mL [6, 29]: >3.0E+05 CFU/mL
- Log10 Growth [6, 29]: >5.48 Log10
- Log10 Reduction [6, 29]: <2.26 Log10
- Average CFU/mL [6, 30]: >3.0E+06 CFU/mL
- Log10 Growth [6, 30]: >6.48 Log10
- Log10 Reduction [6, 30]: <1.26 Log10
- Average CFU/mL [6, 31]: >3.0E+05 CFU/mL
- Log10 Growth [6, 31]: >5.48 Log10
- Log10 Reduction [6, 31]: <2.26 Log10
- Average CFU/mL [7, 32]: >3.30E + 05 CFU/mL
- Log10 Growth [7, 32]: >5.52 Log10
- Average CFU/mL [7, 33]: 9.25E + 03 CFU/mL
- Log10 Growth [7, 33]: 3.97 Log10
- Average CFU/mL [7, 34]: <140 CFU/mL
- Log10 Growth [7, 34]: <2.15 Log10
- Average CFU/mL [8, 32]: <140 CFU/mL
- Log10 Growth [8, 32]: <2.15 Log10
- Average CFU/mL [8, 33]: <140 CFU/mL
- Log10 Growth [8, 33]: <2.15 Log10
- Average CFU/mL [8, 34]: <140 CFU/mL
- Log10 Growth [8, 34]: <2.15 Log10
- Average CFU/mL [9, 32]: 1.77E + 05 CFU/mL
- Log10 Growth [9, 32]: 5.25 Log10
- Average CFU/mL [9, 33]: <140 CFU/mL
- Log10 Growth [9, 33]: <2.15 Log10
- Average CFU/mL [9, 34]: <140 CFU/mL
- Log10 Growth [9, 34]: <2.15 Log10
- Log reduction ([10]; Klebsiella pneumoniae ATCC 4352): 2.46
- Log reduction ([10]; Staphylococcus aureus ATCC 6538): >5.85
